Active and inactive are the calls of the source. How the calls were made is not given here.
Tested on: GENE-TOX genotoxicity assays, various organisms and cells
Assay: GENE-TOX mutagenicity studies
Conditions: for call: Assay Type: In vivo carcinogenicity studies
[1] = Species/Cell Type: Escherichia coli polA (W3119 vs P3478), Assay Type: Rec-assay, DNA effects (bacterial DNA repair), Assay Code: RE1T, Evaluation Type: Evaluation A (Pre-1980)
[2] = Species/Cell Type: Human lymphocytes, Assay Type: Sister-chromatid exchange (SCE) in vitro, Assay Code: SCLT, Evaluation Type: Evaluation B (Post-1980)
[3] = Species/Cell Type: Human, Assay Type: Sister-chromatid exchange (SCE) in vitro, Assay Code: SC1T, Evaluation Type: Evaluation B (Post-1980)
[4] = Species/Cell Type: Nonhuman, Assay Type: Sister-chromatid exchange (SCE) in vitro, Assay Code: SC2+D, Dose Response: With dose response, Evaluation Type: Evaluation B (Post-1980)
[5] = Species/Cell Type: Salmonella typhimurium (one or more of the five standard strains: TA98, TA100, TA1535, TA1537, and TA1538), Assay Type: Histidine reverse gene mutation, Ames assay, Assay Code: SALT, Evaluation Type: Evaluation A (Pre-1980)
[6] = Species/Cell Type: Salmonella typhimurium (one or more of the five standard strains: TA98, TA100, TA1535, TA1537, and TA1538), Assay Type: Histidine reverse gene mutation, Ames assay, Assay Code: SAL+*, Activation: With metabolic activation, Evaluation Type: Evaluation A (Pre-1980)
[7] = Species/Cell Type: Bacillus subtilis (H17 vs M45), Assay Type: Rec-assay, spot test, DNA effects (bacterial DNA repair), Assay Code: REWT, Evaluation Type: Evaluation A (Pre-1980)
[8] = Species/Cell Type: Chinese hamster lung (V79) cells, Assay Type: Forward gene mutation at the HPRT or ouabain locus, Assay Code: V79+, Evaluation Type: Evaluation A (Pre-1980)
[9] = Species/Cell Type: Nonhuman, Assay Code: CCG+L, Evaluation Type: Evaluation A (Pre-1980)
[10] = Species/Cell Type: Salmonella typhimurium (one or more of the five standard strains: TA98, TA100, TA1535, TA1537, and TA1538), Assay Type: Histidine reverse gene mutation, Ames assay, Assay Code: SAL+, Evaluation Type: Evaluation A (Pre-1980)
[11] = Species/Cell Type: Allium cepa, Assay Type: Chromosome aberrations, Assay Code: ALC+D, Dose Response: With dose response, Evaluation Type: Evaluation A (Pre-1980)
[12] = Species/Cell Type: Mammalian polychromatic erythrocytes, Assay Type: Micronucleus test, chromosome aberrations, Assay Code: MNTT, Evaluation Type: Evaluation B (Post-1980)
[13] = Species/Cell Type: Mammalian polychromatic erythrocytes, Assay Type: Micronucleus test, chromosome aberrations, Assay Code: MNTT, Evaluation Type: Evaluation A (Pre-1980)
[14] = Species/Cell Type: Nonhuman, Assay Code: CCG+, Evaluation Type: Evaluation A (Pre-1980)

Question: Which mutagenic call [1] does the source give for NCCS here?
Answer: no conclusion

Question: And the mutagenic call [2]?
Answer: no conclusion

Question: What about the mutagenic call [3] of the same compound?
Answer: no conclusion

Question: What about the mutagenic call (Species/Cell Type: Neurospora crassa, Assay Type: Reverse gene mutation, Assay Code: NER-, Evaluation Type: Evaluation A (Pre-1980)) of the same compound?
Answer: inactive; negative

Question: What about the mutagenic call [4] of the same compound?
Answer: active; positive

Question: What about the mutagenic call [5] of the same compound?
Answer: no conclusion

Question: For COC(=O)COc1ccc(Cl)cc1CCl (tested in a mixture with another compound), which mutagenic call (Species/Cell Type: Saccharomyces cerevisiae, Assay Type: Reverse gene mutation, Assay Code: YERT, Evaluation Type: Evaluation A (Pre-1980)) is on record?
Answer: no conclusion

Question: Which mutagenic call (Species/Cell Type: Nonhuman, Assay Type: Sister-chromatid exchange (SCE) in vitro, Assay Code: SC2-, Evaluation Type: Evaluation B (Post-1980)) does the source give for Cc1ccc2c(ccc3cc4ccccc4cc32)c1 here?
Answer: inactive; negative

Question: And the mutagenic call [6]?
Answer: active; positive

Question: CCOP(=S)(OCC)SCSP(=S)(OCC)OCC was tested. Which mutagenic call [7] did it give?
Answer: no conclusion

Question: What about the mutagenic call [1] of the same compound?
Answer: no conclusion

Question: And the mutagenic call (Species/Cell Type: Human diploid fibroblasts, Assay Type: Unscheduled DNA synthesis (UDS) in vitro, DNA effects, Assay Code: UDH-, Evaluation Type: Evaluation A (Pre-1980))?
Answer: inactive; negative

Question: And the mutagenic call (Species/Cell Type: Human, Assay Type: Sister-chromatid exchange (SCE) in vitro, Assay Code: SC1-, Evaluation Type: Evaluation B (Post-1980))?
Answer: inactive; negative

Question: And the mutagenic call (Species/Cell Type: Saccharomyces cerevisiae, Assay Type: Mitotic recombination or gene conversion, Assay Code: YEH-, Evaluation Type: Evaluation A (Pre-1980))?
Answer: inactive; negative

Question: What about the mutagenic call (Species/Cell Type: Salmonella typhimurium (one or more of the five standard strains: TA98, TA100, TA1535, TA1537, and TA1538), Assay Type: Histidine reverse gene mutation, Ames assay, Assay Code: SAL-, Evaluation Type: Evaluation A (Pre-1980)) of the same compound?
Answer: inactive; negative

Question: Which mutagenic call (Species/Cell Type: Mammalian polychromatic erythrocytes, Assay Type: Micronucleus test, chromosome aberrations, Assay Code: MNT-, Evaluation Type: Evaluation B (Post-1980)) does the source give for O=C1C(c2[nH]c3ccccc3c2O)=Nc2ccccc21 here?
Answer: inactive; negative

Question: With CCC(C)Br (centres undefined) as the compound, how does the mutagenic call [1] read?
Answer: no conclusion

Question: With Cc1ccc2cc3c(ccc4ccccc43)c3c2c1CC3O (centres undefined) as the compound, how does the mutagenic call [8] read?
Answer: active; positive

Question: And the call [9]?
Answer: active; positive

Question: And the mutagenic call [6]?
Answer: active; positive

Question: Which mutagenic call [10] does the source give for O=C(O)Cc1ccccc1[N+](=O)[O-] here?
Answer: active; positive

Question: What does the source list for ClC1=C(Cl)[C@]2(Cl)C3C(Cl)C(Cl)CC3[C@@]1(Cl)C2(Cl)Cl (some centres undefined)?
Answer: mutagenic call [8]: active; positive; call [9]: active; positive; mutagenic call (Species/Cell Type: Rodents, Sex: Male, Assay Type: Dominant lethal test, Assay Code: DLTT, Evaluation Type: Evaluation A (Pre-1980)): no conclusion; mutagenic call (Species/Cell Type: Zea mays (corn), Assay Type: Gene mutation, Assay Code: ZEM+, Evaluation Type: Evaluation A (Pre-1980)): active; positive

Question: How did the mutagenic call [5] turn out when COc1cc([N+](=O)[O-])ccc1N=Nc1ccccc1 was run?
Answer: no conclusion

Question: Which results are given for Cc1ccc2oc(=O)ccc2c1?
Answer: mutagenic call [11]: active; positive; mutagenic call (Species/Cell Type: Nonhuman, Assay Type: Chromosome aberrations in vitro, Assay Code: CY&+, Evaluation Type: Evaluation A (Pre-1980)): active; positive

Question: Which mutagenic call [2] does the source give for CCC1=C(O)C(=O)CC1 here?
Answer: no conclusion

Question: And the mutagenic call [3]?
Answer: no conclusion

Question: For C/C=C1/C[C@@H](C)[C@@](C)(O)C(=O)OCC2=CCN3CC[C@@H](OC1=O)[C@@H]23, which mutagenic call (Species/Cell Type: Drosophila melanogaster, Assay Type: Sex-linked recessive lethal gene mutation, Assay Code: SRL+, Evaluation Type: Evaluation A (Pre-1980)) is on record?
Answer: active; positive

Question: O=[N+]([O-])c1ccc2ccc3cc4ccccc4c4ccc1c2c34 was tested. Which mutagenic call (Species/Cell Type: Chinese hamster ovary (CHO) cells, Assay Type: Forward gene mutation at the HPRT locus, Assay Code: CHO+*, Activation: With metabolic activation, Evaluation Type: Evaluation B (Post-1980)) did it give?
Answer: active; positive

Question: Which mutagenic call [10] does the source give for COc1ccccc1N1CCN(c2ccc([N+](=O)[O-])c3no[n+]([O-])c23)CC1 here?
Answer: active; positive

Question: With CCSc1nc2c(c(=O)n(C)c(=O)n2C)n1C as the compound, how does the mutagenic call [11] read?
Answer: active; positive

Question: How did the mutagenic call (Species/Cell Type: Chinese hamster lung (V79) cells, Assay Type: Forward gene mutation at the HPRT or ouabain locus, Assay Code: V79-, Evaluation Type: Evaluation A (Pre-1980)) turn out when O[C@@H]1c2cccc3ccc4cc5ccccc5c(c4c23)[C@@H]1O was run?
Answer: inactive; negative

Question: What about the mutagenic call [5] of the same compound?
Answer: no conclusion

Question: For O=CNc1nc(-c2cc([N+](=O)[O-])cs2)cs1, which mutagenic call [10] is on record?
Answer: active; positive

Question: For CCCCNCCCC, which mutagenic call (Species/Cell Type: Nonhuman, Assay Type: Chromosome aberrations in vitro, Assay Code: CY&+D, Dose Response: With dose response, Evaluation Type: Evaluation A (Pre-1980)) is on record?
Answer: active; positive

Question: What about the mutagenic call (Species/Cell Type: Nonhuman, Assay Type: Sister-chromatid exchange (SCE) in vitro, Assay Code: SC2+, Evaluation Type: Evaluation A (Pre-1980)) of the same compound?
Answer: active; positive

Question: For O=C(Nc1cc(Cl)cc(Cl)c1O)c1c(O)c(Cl)cc(Cl)c1Cl, which mutagenic call [12] is on record?
Answer: no conclusion

Question: For O=S(=O)(O)c1cc(S(=O)(=O)O)c2c(N=Nc3ccccc3)c(O)ccc2c1, which mutagenic call [7] is on record?
Answer: no conclusion

Question: Which results are given for Nc1cccc(O)c1?
Answer: mutagenic call [13]: no conclusion; mutagenic call (Species/Cell Type: Neurospora crassa, Assay Type: Aneuploidy, chromosome aberrations, Assay Code: NEN-, Evaluation Type: Evaluation A (Pre-1980)): inactive; negative

Question: With C#CC(O)(c1ccccc1)c1ccccc1 as the compound, how does the mutagenic call [5] read?
Answer: no conclusion

Question: With CC(=O)c1ccc([N+](=O)[O-])s1 as the compound, how does the mutagenic call [10] read?
Answer: active; positive

Question: How did the mutagenic call (Species/Cell Type: Rodents, Sex: Male, Assay Type: Dominant lethal test, Assay Code: DLT-, Evaluation Type: Evaluation A (Pre-1980)) turn out when OCCN1CCN(C2Cc3cc(Cl)ccc3Sc3ccccc32)CC1 (centres undefined) was run?
Answer: inactive; negative

Question: What does the source list for O=NN1CN2CN(C1)CN(N=O)C2?
Answer: mutagenic call [13]: no conclusion; mutagenic call (Species/Cell Type: Mouse embryo (AKR/ME) cells, Assay Type: Cell transformation, Assay Code: CTK-, Evaluation Type: Evaluation A (Pre-1980)): inactive; negative; mutagenic call [4]: active; positive

Question: O=C1C(=O)c2ccccc2-c2ccccc21 was tested. Which mutagenic call (Species/Cell Type: Allium cepa, Assay Type: Chromosome aberrations, Assay Code: ALC-, Evaluation Type: Evaluation A (Pre-1980)) did it give?
Answer: inactive; negative

Question: O=NN(CCO)CCO was tested. Which mutagenic call [12] did it give?
Answer: no conclusion

Question: And the call [14]?
Answer: active; positive

Question: For Clc1cccc(Cl)c1Cl, which mutagenic call (Species/Cell Type: Mammalian polychromatic erythrocytes, Assay Type: Micronucleus test, chromosome aberrations, Assay Code: MNT+, Evaluation Type: Evaluation B (Post-1980)) is on record?
Answer: active; positive

Question: How did the mutagenic call [12] turn out when Oc1cc(Cl)ccc1Oc1ccc(Cl)cc1Cl was run?
Answer: no conclusion

Question: What about the mutagenic call (Species/Cell Type: Mouse, Sex: Female, Assay Type: Spot test, gene mutation, Assay Code: MST-, Evaluation Type: Evaluation A (Pre-1980)) of the same compound?
Answer: inactive; negative

Question: What about the mutagenic call (Species/Cell Type: Saccharomyces cerevisiae, Assay Type: Forward gene mutation, Assay Code: YEF+, Evaluation Type: Evaluation A (Pre-1980)) of the same compound?
Answer: active; positive

Question: What about the mutagenic call (Species/Cell Type: Saccharomyces cerevisiae, Assay Type: Mitotic recombination or gene conversion, Assay Code: YEC-, Evaluation Type: Evaluation A (Pre-1980)) of the same compound?
Answer: inactive; negative

Question: And the mutagenic call (Species/Cell Type: Saccharomyces cerevisiae, Assay Type: Mitotic recombination or gene conversion, Assay Code: YEH+, Evaluation Type: Evaluation A (Pre-1980))?
Answer: active; positive

Question: Which mutagenic call [7] does the source give for Nc1c(N=Nc2ccc([N+](=O)[O-])cc2)c(S(=O)(=O)O)cc2cc(S(=O)(=O)O)c(N=Nc3ccccc3)c(O)c12 here?
Answer: no conclusion

Question: Which mutagenic call (Species/Cell Type: Salmonella typhimurium (one or more of the five standard strains: TA98, TA100, TA1535, TA1537, and TA1538), Assay Type: Histidine reverse gene mutation, Ames assay, Assay Code: SAL+/-*, Activation: With metabolic activation, Evaluation Type: Evaluation A (Pre-1980)) does the source give for CCCCN(CCCC(=O)O)N=O here?
Answer: inactive; positive without activation, negative with activation

Question: Which mutagenic call [5] does the source give for COc1ccc2c3c([nH]c2c1)[C@H](CC(C)(C)O)N1C(=O)[C@@H]2CCCN2C(=O)[C@]1(O)[C@H]3O here?
Answer: no conclusion

Question: Which mutagenic call (Species/Cell Type: Mouse lymphoma (L5178Y) cells, Assay Type: Forward gene mutation at the thymidine kinase (TK) locus, chromosome aberrations, Assay Code: L51+, Evaluation Type: Evaluation A (Pre-1980)) does the source give for CCC1CCCCN1CCNc1ccc(CO)c2sc3ccccc3c(=O)c12 (centres undefined) here?
Answer: active; positive

Question: Which mutagenic call (Species/Cell Type: Bacillus subtilis (H17 vs M45T), Assay Type: Rec-assay, spot test, DNA effects (bacterial DNA repair), Assay Code: REXT, Evaluation Type: Evaluation A (Pre-1980)) does the source give for Cc1ccccc1N=Nc1c(N)ccc2ccccc12 here?
Answer: no conclusion

Question: With Nc1ccc(Cl)c(N)c1 as the compound, how does the call [14] read?
Answer: active; positive

Source: PubChem BioAssay AID1259408 (Genetic Toxicology Data Bank (GENE-TOX), 2018)
